The text below walks through data of patent US20040076954A1, “Genomics-driven high speed cellular assays, development thereof, and collections of cellular reporters” (IRM, LLC, priority 2001, published 2004).

Series [1] relates to Mouse macrophage cell line RAW264.7. As to the kind of experiment: Antibiotic selection of transfected RAW264.7 cells. It is filed as cell-based. Conditions: transfected RAW cells. As for the experimental part:
Mouse macrophage cell line RAW264.7 from the ATCC was used for reporter gene assays. RAW cells were cultured at 37° C. in Dulbecco's modified Eagle medium (GibcoBRL), supplemented with 10% defined fetal bovine serum (low endotoxin, Hyclone). Transient transfection was carried out in 6 well plates with SuperFect Transfection Reagent (Qiagen) using the protocol provided by the supplier. In brief, 6×10^5 cells were seeded in each well the day before transfection. 2 μg of DNA and 10 μl of SuperFect reagent were added to the cells. For the purposed of selecting stable cell lines, vectors containing antibiotic resistant genes (e.g. hygromycin, puromycin and blasticidin) were also included at a ratio of 1:5 or 1:10 to the reporter DNA. 48 hours post-transfection, the cells were transferred into 10 cm dishes. An antibiotic was added at 150 μg/ml of hygromycin, 400 ng/ml of puromycin, or 3 μg/ml of blasticidin. […] Two weeks later, the cells which sustained antibiotic selection were seeded into three 96 well plates at the density of 0.3 cell/well. After 3-4 weeks, 44 single clones each of MALH (hygromycin) and MALB (blasticidin) were harvested and assayed. Pools of MALH or MALB were also combined for population experiments. The total selection time was 5-6 weeks.

Series [2] concerns HepG2 (human hepatoma cells). As to the kind of experiment: Gene chip (Affymetrix) expression profiling of HGF-treated hepatocyte cells. The format is cell-based. The settings on record: HepG2, 75 ng/ml HGF 4 hours vs untreated. As for the experimental part: A method assessing the responsiveness of gene transcript to Hepatocyte Growth Factor (HGF) in a human hepatocyte cell line is exemplified.
Human hepatocyte cells, HepG2 (human hepatoma cells ATCC accession no. HB-8065), were plated at 8×10^5 cells per ml in a 4 separate wells of a 6-well plate and incubated overnight at 37° C., 5% CO2. Eighteen hours after plating, 2 wells of cells were treated with 75 ng/ml of HGF continuously for 4 hours, while two samples were left untreated. Cells were harvested by 1×PBS wash, scraped into a 15 ml conical tube and placed on ice. Samples were centrifuged to pellet the cells, flash frozen on dry ice and submitted for RNA extraction.
The following protocol was used to isolate total RNA from the 2 untreated and 2 treated samples:
The following protocol was used to generate cDNA then cRNA from the total RNA preparation:
The following protocol was used to hybridize the cRNA to gene chips (Affymetrix):
Following the hybridization, the chips are analyzed for relative fluorescence intensity corresponding to each set of oligonucleotides. The location of each oligonucleotide and the gene it represents on the array is known. Using, for example, Microsoft Excel, a list of each oligonucleotide, corresponding gene and relative intensity are recorded and saved. The data sets for treated and untreated are compared side-by-side for average-fold change. The resulting list is parsed by magnitude fold-change and can be represented as text (Excel), or visually (Gene-Spring or Tree-view).
The following details the results of a chip study. […] The list begins with the greatest fold induction (FC) and ends with greatest fold repression.

`CN(CC[C@H](N)CC(=O)N[C@H]1C=C[C@H](n2ccc(N)nc2=O)O[C@@H]1C(=O)O)C(=N)N` [blasticidin]: the “cell death within 3 days of antibiotic selection” value in series [1] (3 μg/ml blasticidin) is reported as “Massive cell death”.
`COc1ccc(C[C@H](N)C(=O)N[C@H]2[C@@H](O)[C@H](n3cnc4c(N(C)C)ncnc43)O[C@@H]2CO)cc1` [puromycin]: in series [1] (400 ng/ml puromycin), the “cell death within 3 days of antibiotic selection” value is listed as “not”.
Consider Hepatocyte Growth Factor [HGF], for which, in series [2], the “FC (fold change) 277_at myeloid cell differentiation protein (MCL1) (L08246)” value is on record as 6 fold, the “FC (fold change) 529_at dual-specificity protein phosphatase (U15932)” value was 5 fold, the “FC (fold change) 660_at mitochondrial 1,25-dihydroxyvitamin D3 24-hydroxylase (L13286)” value came out at 9 fold and the “FC (fold change) 1237_at IEX-1 radiation-inducible immediate-early gene (S81914)” value is reported as 8 fold. Besides, in series [2], the “FC (fold change) 1379_at HUMECK protein tyrosine kinase (M59371)” value is reported as 8 fold, the “FC (fold change) 1890_at TGF-beta superfamily protein (AB000584)” value is on record as 5 fold, the “FC (fold change) 2057_g_at fibroblast growth factor (FGF) receptor-1 (M34641)” value amounted to 5 fold and the “FC (fold change) 31888_s_at IPL (AF001294)” value was found to be 14 fold. In addition, in series [2], the “FC (fold change) 32786_at jun-B (X51345)” value is given as 7 fold, the “FC (fold change) 33146_at myeloid cell differentiation protein (MCL1) (L08246)” value was 6 fold, the “FC (fold change) 34476_r_at epiregulin (D30783)” value was determined as 15 fold and the “FC (fold change) 34898_at amphiregulin (AR) (M30704)” value is 13 fold. In series [2], the “FC (fold change) 35372_r_at beta-thromboglobulin-like protein (M17017)” value is 8 fold, the “FC (fold change) 35454_at KIAA0450 protein (AB007919)” value is recorded as 5 fold, the “FC (fold change) 35597_at C8FW phosphoprotein (AJ000480)” value was determined as 7 fold and the “FC (fold change) 36097_at transcription factor ETR101 (M62831)” value is 5 fold. In series [2], the “FC (fold change) 36324_at A2b adenosine receptor (X68487)” value is 6 fold, the “FC (fold change) 36344_at proteinase-activated receptor-2 (U34038)” value is 7 fold, the “FC (fold change) 36345_g_at proteinase-activated receptor-2 (U34038)” value is on record as 8 fold and the “FC (fold change) 36543_at placental tissue factor (J02931)” value was determined as 7 fold. Also, in series [2], the “FC (fold change) 36711_at novel MAFF LIKE protein (AL021977)” value came out at 8 fold, the “FC (fold change) 36742_at putative zinc finger protein (ZNFB7) (U34249)” value is 5 fold, the “FC (fold change) 37680_at gravin (U81607)” value came out at 7 fold and the “FC (fold change) 38125_at beta-migrating plasminogen activator inhibitor I (M14083)” value came out at 13 fold. Also, in series [2], the “FC (fold change) 38247_at proteinase activated receptor-2 mRNA, 3UTR (U67058)” value turned out to be 9 fold; the “FC (fold change) 38772_at CYR61 (Y11307)” value was found to be 9 fold; the “FC (fold change) 39105_at vasodilator-stimulated phosphoprotein (VASP) (Z46389)” value is recorded as 11 fold; the “FC (fold change) 39248_at za55a01.s1 cDNA (N74607)” value was 6 fold. Also, in series [2], the “FC (fold change) 40385_at chemokine exodus-1 mRNA (U64197)” value is on record as 19 fold, the “FC (fold change) 40614_at SHB (X75342)” value amounted to 8 fold, the “FC (fold change) 41193_at DUSP6 (AB013382)” value came to 6 fold and the “FC (fold change) 41524_at inositol polyphosphate 1-phosphatase (L08488)” value worked out at 6 fold. For the same compound, in series [2] (negative = repression), the “FC (fold change) 1974_s_at p53 cellular tumor antigen (X02469)” value is on record as −5 fold, the “FC (fold change) 2089_s_at H06628 similar to ERBB-3 receptor protein-tyrosine kinase precursor” value was −5 fold, the “FC (fold change) 32787_at epidermal growth factor receptor (HER3) (M34309)” value is −8 fold and the “FC (fold change) 36048_at HRIHFB2436 (AB015342)” value is −5 fold. Further, in series [2] (negative = repression), the “FC (fold change) 37487_at KIAA1093 protein (AB029016)” value is recorded as −5 fold.
